{"source": "paper PMC6934184", "about": "“Selective DNA-PKcs inhibition extends the therapeutic index of localized radiotherapy and chemotherapy” (The Journal of Clinical Investigation, 2019)", "biological_target": "T1, MAP4K4 (HGK) (Homo sapiens, UniProt O95819)", "T1 construct": "purchased Thermo Fisher Scientific (Life Technologies) SelectScreen", "T1 sequence (O95819 whole entry)": "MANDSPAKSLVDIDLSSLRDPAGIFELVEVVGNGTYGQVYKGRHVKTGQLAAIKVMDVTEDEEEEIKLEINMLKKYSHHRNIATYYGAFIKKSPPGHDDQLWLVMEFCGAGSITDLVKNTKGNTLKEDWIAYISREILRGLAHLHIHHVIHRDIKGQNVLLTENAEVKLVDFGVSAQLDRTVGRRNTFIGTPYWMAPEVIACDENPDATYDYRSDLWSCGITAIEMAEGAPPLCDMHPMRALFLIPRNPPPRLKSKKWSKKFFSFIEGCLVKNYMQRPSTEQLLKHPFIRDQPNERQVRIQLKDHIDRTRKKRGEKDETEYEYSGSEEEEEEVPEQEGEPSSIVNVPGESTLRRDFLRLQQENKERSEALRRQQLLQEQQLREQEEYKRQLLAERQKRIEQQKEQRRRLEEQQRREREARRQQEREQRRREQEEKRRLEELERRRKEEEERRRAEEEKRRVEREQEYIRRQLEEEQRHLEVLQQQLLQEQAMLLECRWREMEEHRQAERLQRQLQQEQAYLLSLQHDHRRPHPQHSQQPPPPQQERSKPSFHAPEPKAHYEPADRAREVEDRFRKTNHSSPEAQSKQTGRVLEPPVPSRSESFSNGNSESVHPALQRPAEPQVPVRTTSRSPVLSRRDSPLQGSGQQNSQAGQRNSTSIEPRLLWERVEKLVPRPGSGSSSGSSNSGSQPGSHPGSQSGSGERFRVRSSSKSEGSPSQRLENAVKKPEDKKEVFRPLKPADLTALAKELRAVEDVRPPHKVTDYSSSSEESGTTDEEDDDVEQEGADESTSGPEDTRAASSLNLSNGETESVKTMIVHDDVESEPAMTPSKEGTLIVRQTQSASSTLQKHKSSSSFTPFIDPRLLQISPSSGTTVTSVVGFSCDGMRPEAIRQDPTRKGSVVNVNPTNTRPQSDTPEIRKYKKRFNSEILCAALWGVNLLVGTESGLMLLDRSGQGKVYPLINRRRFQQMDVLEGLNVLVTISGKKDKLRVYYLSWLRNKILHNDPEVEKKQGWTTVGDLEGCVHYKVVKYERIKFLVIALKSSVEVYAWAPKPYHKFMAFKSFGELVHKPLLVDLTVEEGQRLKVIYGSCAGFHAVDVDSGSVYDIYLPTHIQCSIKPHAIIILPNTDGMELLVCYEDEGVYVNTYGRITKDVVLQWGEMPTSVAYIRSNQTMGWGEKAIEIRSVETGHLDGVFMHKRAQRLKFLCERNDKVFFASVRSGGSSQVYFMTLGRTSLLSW", "assay": "SelectScreen Z'LYTE", "format": "biochemical", "procedure,_shortened": "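Percent values come from Thermo SelectScreen profiling of NU5455, combining activity and binding assays. CSF1R was run in Z'LYTE format at Km app ATP, and CAMK1 in Adapta format with ATP listed at 10.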"}
{"compound": "CN(C(=O)CN1CCOCC1)c1ccc2sc3c(-c4cccc5c(=O)cc(N6CC7CCC(C6)O7)oc45)cccc3c2c1", "note": "[NU5455]", "values": [{"measurement": "inhibition at 1 µM", "result": -5.6, "unit": "%"}]}
